Entries after “also recorded” stand apart in the source; their conditions may differ. Like-named read-outs stand apart in the source and are kept apart here.
Legend:
Type in all cases: physicochemical
[1] = Miscibility of amines with water in the absence of CO2 (Example 5A)
Experimental: 1 mL of an appropriate amine was combined with 1 mL of H2O in a 4 mL vial, with the 1 and 2 mL volume lines marked. The vial was manually shaken and left to settle at room temperature. After the mixture settled, the number of phases was observed visually. This procedure was performed for all of the screened amines.

[2] = Miscibility of amines with water in the presence of CO2 (Example 5B); conditions: CO2 bubbled through amine/water mixture for at least one hour
Experimental: All of the amines that formed a biphasic mixture in Example 5A were subjected to the following test. Carbon dioxide was bubbled through the amine/water biphasic mixture, via a syringe needle, for at least one hour. Care was taken to regulate the rate of the CO2 bubbling, so as not to cause evaporation of the amine. The liquid-liquid interface was observed over the course of CO2 bubbling, and a photo was taken after 60 minutes.

[3] = Water miscibility of amidines in neutral form and after CO2; conditions: for miscibility with water, neutral (unprotonated) amidine form: no CO2
From the text: This represents relatively hydrophilic character. The amidines A-D are unsatisfactory for use as a switchable hydrophilicity solvent because they are insufficiently hydrophobic in their amidine form. […] Since such amidines are not separable from water after switching from their hydrophilic to hydrophobic forms, they are unsuitable for use in the present invention.
Exposure of a 1:1 by volume mixture of two immiscible liquids, hydrophobic PA and water, to gaseous CO2, at 1 atmosphere, caused a conversion to a hydrophilic liquid comprising an aqueous solution of N,N,N′-tripropylbutyramidinium bicarbonate (PAB) (see FIG. 1 for the chemical scheme in which R^1-4 are propyl). NMR data for the PA/water system is presented in FIGS. 4 and 5 and IR data in FIG. 6. FIGS. 4A and 5A show ^1H and ^13C NMR data for PA. After switching, the detection of the N,N,N′-tripropylbutyramidinium bicarbonate salt was confirmed by ^1H and ^13C NMR as shown in FIGS. 4B and 5B.
Similarly, exposure of a 1:1 by volume mixture of two immiscible liquids, hydrophobic BA and water, to gaseous CO2, at 1 atmosphere, caused a conversion to a hydrophilic liquid comprising an aqueous solution of N,N,N′-tributylpentanamidinium bicarbonate (BAB) (see FIG. 1 for the chemical scheme in which R^1-4 are butyl). NMR data for the […] is presented in FIGS. 7 and 8 and IR data in FIG. 9. […] show ^1H and ^13C NMR data for BA. After switching, the detection of the N,N,N′-tributylpentanamidinium bicarbonate salt was confirmed by ^1H and ^13C NMR as shown in FIGS. 6B and 7B. The hydrophilic aqueous solution of BAB was converted back into hydrophobic BA and water by heating at 80° C.

[4] = Conversion of amine switchable hydrophilicity solvents back to hydrophobic form by heating (Example 5C); conditions: 80 °C, approximately 60 minutes
Experimental: All of the amines identified as switchable hydrophilicity solvents in Example 5B (except N,N-dimethylbutylamine) were subjected to the following test. The vial containing the single-phase amine/water/CO2 mixture prepared in example 5B was heated in an oil bath at 80° C. for approximately 60 minutes. The mixture was magnetically stirred, and phase separation was observed throughout the course of heating. In the case of the N1,N1,N4,N4-tetraethylbutane-1,4-diamine/water/CO2 mixture, 5 hours of heating was required to switch it back to its hydrophobic form.

[5] = Converting ammonium bicarbonate salt to amine by bubbling air at room temperature (Example 5D)
Experimental: A homogeneous aqueous solution of dimethylcyclohexylammonium bicarbonate was prepared by mixing N,N-dimethylcyclohexylamine (1 mL), and H2O (1 mL) and bubbling with CO2 for 90 minutes. The 2.0 mL solution was placed in a 10 mL graduated cylinder with a magnetic stir bar and that was then stoppered with a rubber septum. Air was bubbled through the solution for a total of 28 hours, with constant stirring. […] Total volume loss after 28 hours was 0.1 mL.

[6] = Visual and NMR study of amine switchable hydrophilicity solvents (Example 6); conditions: for loss of volume after CO2 bubbling / time of CO2 bubbling to form one homogeneous solution / total volume after CO2 bubbling / number of layers formed without CO2: 1 mL amine + 1 mL D2O; for number of layers formed without CO2: room temperature
Experimental: The following amines were evaluated in this series of experiments: N-ethylpiperidine, N,N-dimethylcyclohexylamine, and N,N-dimethylhexylamine. The sequence of experiments is described for one amine but was performed for all three. The visual observations are described in Table 3. 1,4-Dioxane was used as an internal standard for NMR spectroscopy.
Amine (1 mL) was combined with D2O (1 mL) in a 10 mL graduated cylinder, which was then capped with a rubber septum. The cylinder was manually shaken and left to settle at room temperature, after which the mixture appeared as two transparent liquid phases. For each amine, this procedure was simultaneously conducted in 3 identical cylinders. From the aqueous (bottom) layer of one of the three cylinders, three 250 μL samples were withdrawn, combined with equal volumes of D2O and dioxane internal standard, and analyzed by ^1H NMR spectroscopy. The spectra were consistent with the amine in the aqueous phase being in its neutral form. The graduated cylinder from which the samples were taken was discarded.
For each of two remaining graduated cylinders, carbon dioxide was bubbled through the amine/water biphasic mixture, via a syringe needle, for at least one hour. Care was taken to regulate the rate of the CO2 bubbling, so as not to cause significant evaporation of the amine. The mixture changed from a biphasic liquid mixture to a single homogeneous liquid phase. From one of the two graduated cylinders, a 300 μL sample of the homogenous liquid phase was withdrawn and mixed with an equal volume of D2O and a known quantity of dioxane internal standard. […] The graduated cylinder from which the sample was taken was discarded.
The remaining graduated cylinder, containing the single-phase amine/water/CO2 mixture prepared above, was heated in an oil bath at 80 deg. C for 1 hour. Phase separation was observed. Three 250 μL samples of the aqueous (bottom) layer were withdrawn, combined with equal volumes of D2O and a known quantity of dioxane internal standard, and analyzed by NMR spectroscopy.

[7] = 1 mL amine + 1 mL H2O, room temperature, visual
[8] = 2.0 mL aqueous solution, stirring

SMILES	miscibility with water under air (absence of CO2) [1, 7]	miscibility with water after CO2 treatment [2]	further results
CCN(C(C)C)C(C)C [N,N-diisopropylethylamine, reference compound]	biphasic	biphasic	–
CCCN=C(CCC)N(CCC)CCC [PA, N,N,N′-tripropylbutyramidine]	–	–	miscibility with water after CO2 trigger (amidinium bicarbonate form) ([3]; CO2 and water): became miscible; miscibility with water, neutral (unprotonated) amidine form [3]: immiscible with water
CCCN(CCC)CCC [tripropylamine, reference compound]	biphasic	biphasic	–
C1CCC2=NCCCN2CC1 [DBU, 1,8-diazabicyclo-[5.4.0]-undec-7-ene, reference compound]	–	–	miscibility with water, neutral (unprotonated) amidine form [3]: water-miscible
CN(C)CCCCN(C)C [Me2NCH2CH2CH2CH2NMe2, reference compound]	miscible	–	–
CN(C)CCN(C)C [N,N,N′,N′,-tetramethylethylenediamine, reference compound]	–	–	miscibility with water under air (absence of CO2) [1]: single-phase
CN1CCCCC1 [N-methylpiperidine, reference compound]	single-phase	–	–
CCN1CCOCC1 [N-ethylmorpholine, reference compound]	single-phase	–	–
CCCN(C)CCC [methyldipropylamine]	biphasic	single-phase	loss of amine during heating (excessive volatility) [4]: loss of amine; miscibility with water under air (absence of CO2) ([1]; 1 mL amine + 1 mL H2O, room temperature, visual, listed as dipropylmethylamine): immiscible with water; miscibility with water after CO2 treatment ([2]; listed as dipropylmethylamine): became water-miscible
CCCCN1CCCC1 [N-butylpyrrolidine]	immiscible with water; also recorded: biphasic	became water-miscible; also recorded: single-phase	–
CCCCCCN=C(C)N(C)C [Me2N—C(═N-hexyl)Me, reference compound]	–	–	miscibility with water, neutral (unprotonated) amidine form [3]: water-miscible
CN(C)C1CCCCC1.O=C(O)O [dimethylcyclohexylammonium bicarbonate]	–	–	total volume loss after 28 hours of air bubbling [5]: 0.1 mL; volume of bottom layer after 28 hours of air bubbling [5]: 1.6 mL; volume of top layer after 28 hours of air bubbling [5]: 0.3 mL; observation after 8 hours of air bubbling [5, 8]: no observed phase separation or volume loss; observation after 28 hours of air bubbling [5, 8]: a two-phase liquid mixture was observed
CCCCCCCCCCCCN(C)C [N,N-dimethyldodecylamine, reference compound]	biphasic	biphasic	–
CCCCCCN(C)C [N,N-dimethylhexylamine]	biphasic	single-phase	loss of volume after CO2 bubbling [6]: (loss of 0.1 mL); time of CO2 bubbling to form one homogeneous solution [6]: took 75 min to form one; total volume after CO2 bubbling [6]: total volume is 1.9 mL; number of layers formed without CO2 [6]: formed 2 clear,; time of heating to separate into 2 layers ([6]; oil bath 80 deg. C): after 30 min solution has; volume of bottom (aqueous) layer after heating ([6]; oil bath 80 deg. C): 1 mL; volume of top layer after heating ([6]; oil bath 80 deg. C): 0.9 mL; miscibility with water under air (absence of CO2) ([1]; 1 mL amine + 1 mL H2O, room temperature, visual, listed as dimethylhexylamine): immiscible with water; miscibility with water after CO2 treatment ([2]; listed as dimethylhexylamine): became water-miscible
CCN(CC)C1CCCCC1 [N,N-diethyl-N-cyclohexylamine]	immiscible with water	became water-miscible	–
CCCN(CC)CCCCN(CC)CCC [N,N′-dipropyl-N,N′-diethylbutane-1,4-diamine]	biphasic	single-phase	miscibility with water under air (absence of CO2) ([1]; 1 mL amine + 1 mL H2O, room temperature, visual, listed as EtPrNCH2CH2CH2CH2NEtPr): immiscible; miscibility with water after CO2 treatment ([2]; listed as EtPrNCH2CH2CH2CH2NEtPr): miscible
CN(C)Cc1cc(CN(C)C)cc(CN(C)C)c1 [1,1′,1″-(benzene-1,3,5-triyl)tris(N,N-dimethylmethanamine)]	biphasic	single-phase	–
CCCCCCCCN(CCCCCCCC)CCCCCCCC [trioctylamine, reference compound]	biphasic	biphasic	–
CCN1CCCCC1 [N-ethylpiperidine]	immiscible with water; also recorded: biphasic	became water-miscible; also recorded: single-phase	loss of volume after CO2 bubbling [6]: (loss of 0.1 mL); time of CO2 bubbling to form one homogeneous solution [6]: took 60 min to form one; total volume after CO2 bubbling [6]: total volume is 1.9 mL; number of layers formed without CO2 [6]: formed 2 layers;; amine remaining in the aqueous phase after heating ([6]; 80 deg. C, 1 hour, NMR spectroscopy, dioxane internal standard): showed that approximately 49%; time of heating to separate into 2 layers ([6]; oil bath 80 deg. C): after 30 min, separated into 2; volume of top layer after heating ([6]; oil bath 80 deg. C): 0.7 mL. NMR spectroscopy
CCCN(CCC)CCCCN(CCC)CCC [N,N,N′,N′-tetrapropylbutane-1,4-diamine, reference compound]	biphasic	biphasic	miscibility with water after CO2 treatment ([2]; listed as Pr2NCH2CH2CH2CH2NPr2): immiscible
CN(C)CC1CC(CN(C)C)CC(CN(C)C)C1 (stereo not shown) [1,1′,1″-(cyclohexane-1,3,5-triyl)tris(N,N-dimethylmethanamine]	biphasic	single-phase	–
CCCCN(C)C [N,N-dimethylbutylamine]	biphasic	single-phase	–
CCN(C)CC [N,N-diethyl-N-methylamine]	immiscible with water	became water-miscible	–
CN(C)c1ccccc1 [N,N-dimethylaniline, reference compound]	biphasic	biphasic	–

— patent publication US8900444B2, “Switchable hydrophilicity solvents and methods of use thereof” (Queen's University at Kingston, priority 2009, dated 2014)
